Assays:
[1] = molecular target: T1, BTK (Homo sapiens, UniProt Q06187); assay: Z'-LYTE kinase inhibition assay (Invitrogen), BTK; format: biochemical; details: for inhibition at 0.1 µM: compound at 100 nM, [ATP] = Km
T1 construct: purchased Invitrogen
Method: (§1) Inhibitory activities of compounds against BTK, EGFR and EGFR mutants (EGFR L858R/T790M) were measured by Invitrogen using Z′-LYTE® Method as briefly described in the following.
(§2) Test Compounds are screened in 1% DMSO (final) in the well. For 10 point titrations, 3-fold serial dilutions are conducted from the starting concentration. All ATP Solutions are diluted to a 4× working concentration in Kinase Buffer (50 mM HEPES pH 7.5, 0.01% BRIJ-35, 10 mM MgCl2, 1 mM EGTA). Peptide/Kinase Mixtures are diluted to a 2× working concentration in the appropriate Kinase Buffers as described below.
(v) Peptide/Kinase Mixtures for measurement of BTK:
The 2×BTK/Tyr 01 mixture is prepared in 50 mM HEPES pH 7.5, 0.01% BRIJ-35, 10 mM MgCl2, 1 mM EGTA. The final 10 μL Kinase Reaction consists of 1.04-10.4 ng BTK and 2 μM Tyr 01 in 50 mM HEPES pH 7.5, 0.01% BRIJ-35, 10 mM MgCl2, 1 mM EGTA. After the 1 hour Kinase Reaction incubation, 5 μL of a 1:256 dilution of Development Reagent B is added.
(§3) Reaction starts by 30-second shaking of mixture consisting of 2.5 μL 4× test compound, 5 μL 2× kinase reaction mixture and 2.5 μL 4×ATP Solution on Bar-coded Corning, low volume NBS, black 384-well plate (Corning Cat. #3676). Then the mixture is incubated for 60-minute at room temperature for the kinase reaction, followed by addition of 5 μL of a 1:1024 dilution of development reagent A and 30-second plate shake. The mixture is then incubated for another 60-minute at room temperature for development reaction. Finally fluorescence is read by plate reader. […] The scale utilized in Tables 2 and 3 is as follows: ++ more than 50% inhibition and + less than 50% inhibition.
(§4) To determine IC50 of a compound against EGFR or EGFR mutants, a series of concentrations of the compound were tested for the inhibition. IC50 was calculated by plotting the concentration of compound vs the percentage of inhibition in treated wells using GraphPad Prism 5. […] The scale utilized in Table 4 is as follows: ++ less than 100 nM and + greater than 100 nM.

[2] = system: A549 cells; assay: MTT cell growth inhibition assay, A549; format: cell-based; details: Homo sapiens, A549 cells (KRAS mutation), 72 h
Method: (§5) Inhibition of cell growth by compounds was measured using MTT assay (Mosmann, T., Journal of Immunological Methods, 1983, 65, 55-63). Tumor cell lines were purchased from ATCC (American Type Culture Collection, Manassas, Va.). All cell lines were maintained in RPMI 1640 (Hyclone) supplemented with 10% fetal bovine serum (FBS, Hyclone), glutamine (2 mM, Hyclone), and antibiotics (penicillin 100 U/mL and streptomycin 50 μg/mL) at 37° C. in a humidified atmosphere of 5% CO2 in air. Taxol (as a positive control, Sigma) and compounds were dissolved in DMSO (Sigma), and the final concentration of DMSO in the medium was 1%. Tumor cells were plated in 96-well plates at densities of about 4000 cells/well of a 96-well plate and allowed to adhere/grow for 24 h. They were then treated with various concentrations of drug for 72 h. 3-(4,5-Dimethylthiazol-2-yl)-2,5-diphenyltetrazolium bromide (MTT, Sigma) was used to determine the number of viable cells at the time of compound addition and the number of cells remaining after 72 h compound exposure. The number of cells remaining after 72 h was compared to the number of viable cells at the time of compound addition by measuring the absorbance at 570 nm, allowing for the calculation of growth inhibition.
(§6) All concentrations of compounds were tested in triplicate and controls were averaged over 4 wells. IC50 was calculated by plotting the concentration of compound vs the percentage of inhibition in treated wells using GraphPad Prism 5.
(§7) Tables 5 show IC50 values of several compounds of the invention in A549, A431, H1299, and H1975 human cancer cells. A549 cells have a mutation on KRAS, H3255 cells have L858R mutation, and H1975 cells have double EGFR mutations (L858R/T790M). The scale utilized in Table 5 is as follows: +++ less than 100 nM; ++ between 100 nM and 500 nM; and + greater than 500 nM.

[3] = system: A431 cells; assay: MTT cell growth inhibition assay, A431; format: cell-based; details: Homo sapiens, A-431, 72 h
Method: as §5, §6, §7

[4] = system: H1975 cells; assay: MTT cell growth inhibition assay, H1975; format: cell-based; details: Homo sapiens, NCI-H1975, H1975 cells (EGFR L858R/T790M), 72 h
Method: as §5, §6, §7

[5] = molecular target: T2, EGFR (ErbB1) (Homo sapiens, UniProt P00533); assay: Z'-LYTE kinase inhibition assay (Invitrogen), EGFR; format: biochemical; details: for inhibition at 0.1 µM: compound at 100 nM, [ATP] = Km
T2 construct: purchased Invitrogen
T2 sequence (P00533 25-1210): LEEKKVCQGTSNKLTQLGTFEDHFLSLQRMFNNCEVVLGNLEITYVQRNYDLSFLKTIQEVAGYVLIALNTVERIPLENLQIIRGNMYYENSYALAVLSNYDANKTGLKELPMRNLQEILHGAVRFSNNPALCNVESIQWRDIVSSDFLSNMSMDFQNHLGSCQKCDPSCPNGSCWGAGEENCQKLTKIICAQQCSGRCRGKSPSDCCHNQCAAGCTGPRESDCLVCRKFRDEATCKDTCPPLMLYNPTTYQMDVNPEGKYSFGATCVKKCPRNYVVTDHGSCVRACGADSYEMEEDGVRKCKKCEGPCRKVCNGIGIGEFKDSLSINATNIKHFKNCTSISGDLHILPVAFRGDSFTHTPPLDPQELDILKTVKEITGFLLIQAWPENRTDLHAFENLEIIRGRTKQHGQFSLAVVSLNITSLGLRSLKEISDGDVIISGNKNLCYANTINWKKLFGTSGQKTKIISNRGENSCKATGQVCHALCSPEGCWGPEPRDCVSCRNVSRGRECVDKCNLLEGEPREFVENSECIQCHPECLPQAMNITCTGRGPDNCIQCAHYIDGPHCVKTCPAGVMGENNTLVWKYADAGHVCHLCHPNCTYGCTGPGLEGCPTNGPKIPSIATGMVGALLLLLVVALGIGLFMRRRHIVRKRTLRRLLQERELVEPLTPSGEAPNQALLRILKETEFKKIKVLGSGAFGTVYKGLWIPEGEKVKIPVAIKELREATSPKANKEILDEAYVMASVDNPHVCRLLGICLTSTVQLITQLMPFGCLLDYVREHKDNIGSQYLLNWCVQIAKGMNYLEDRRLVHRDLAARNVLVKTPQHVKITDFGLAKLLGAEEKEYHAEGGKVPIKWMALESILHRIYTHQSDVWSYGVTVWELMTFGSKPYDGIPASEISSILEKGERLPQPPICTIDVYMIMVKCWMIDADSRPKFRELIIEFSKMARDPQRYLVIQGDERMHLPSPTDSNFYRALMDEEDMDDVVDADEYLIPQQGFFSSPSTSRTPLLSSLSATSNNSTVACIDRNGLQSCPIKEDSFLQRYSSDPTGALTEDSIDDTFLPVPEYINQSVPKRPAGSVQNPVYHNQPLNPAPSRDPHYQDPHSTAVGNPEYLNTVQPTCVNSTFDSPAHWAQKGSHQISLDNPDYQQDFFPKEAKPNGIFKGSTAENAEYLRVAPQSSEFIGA
Method: as §1, §2
(i) Peptide/Kinase Mixtures for measurement of EGFR (ErbB1):
The 2×EGFR (ErbB1)/Tyr 04 mixture is prepared in 50 mM HEPES pH 7.5, 0.01% BRIJ-35, 10 mM MgCl2, 4 mM MnCl2, 1 mM EGTA, 2 mMDTT. The final 10 μL Kinase Reaction consists of 1.1-5.25 ng EGFR (ErbB1) and 2 μM Tyr 04 in 50 mM HEPES pH 7.5, 0.01% BRIJ-35, 10 mM MgCl2, 2 mM MnCl2, 1 mM EGTA, 1 mM DTT. After the 1 hour Kinase Reaction incubation, 5 μL of a 1:64 dilution of DevelopmentReagent B is added.
as §3, §4

[6] = molecular target: T3, EGFR (ErbB1) T790M L858R (Homo sapiens, UniProt P00533, L858R/T790M); assay: Z'-LYTE kinase inhibition assay (Invitrogen), EGFR L858R/T790M; format: biochemical; details: for inhibition at 0.1 µM: compound at 100 nM, [ATP] = Km
T3 construct: purchased Invitrogen
T3 sequence (P00533 25-1210 T790M/L858R): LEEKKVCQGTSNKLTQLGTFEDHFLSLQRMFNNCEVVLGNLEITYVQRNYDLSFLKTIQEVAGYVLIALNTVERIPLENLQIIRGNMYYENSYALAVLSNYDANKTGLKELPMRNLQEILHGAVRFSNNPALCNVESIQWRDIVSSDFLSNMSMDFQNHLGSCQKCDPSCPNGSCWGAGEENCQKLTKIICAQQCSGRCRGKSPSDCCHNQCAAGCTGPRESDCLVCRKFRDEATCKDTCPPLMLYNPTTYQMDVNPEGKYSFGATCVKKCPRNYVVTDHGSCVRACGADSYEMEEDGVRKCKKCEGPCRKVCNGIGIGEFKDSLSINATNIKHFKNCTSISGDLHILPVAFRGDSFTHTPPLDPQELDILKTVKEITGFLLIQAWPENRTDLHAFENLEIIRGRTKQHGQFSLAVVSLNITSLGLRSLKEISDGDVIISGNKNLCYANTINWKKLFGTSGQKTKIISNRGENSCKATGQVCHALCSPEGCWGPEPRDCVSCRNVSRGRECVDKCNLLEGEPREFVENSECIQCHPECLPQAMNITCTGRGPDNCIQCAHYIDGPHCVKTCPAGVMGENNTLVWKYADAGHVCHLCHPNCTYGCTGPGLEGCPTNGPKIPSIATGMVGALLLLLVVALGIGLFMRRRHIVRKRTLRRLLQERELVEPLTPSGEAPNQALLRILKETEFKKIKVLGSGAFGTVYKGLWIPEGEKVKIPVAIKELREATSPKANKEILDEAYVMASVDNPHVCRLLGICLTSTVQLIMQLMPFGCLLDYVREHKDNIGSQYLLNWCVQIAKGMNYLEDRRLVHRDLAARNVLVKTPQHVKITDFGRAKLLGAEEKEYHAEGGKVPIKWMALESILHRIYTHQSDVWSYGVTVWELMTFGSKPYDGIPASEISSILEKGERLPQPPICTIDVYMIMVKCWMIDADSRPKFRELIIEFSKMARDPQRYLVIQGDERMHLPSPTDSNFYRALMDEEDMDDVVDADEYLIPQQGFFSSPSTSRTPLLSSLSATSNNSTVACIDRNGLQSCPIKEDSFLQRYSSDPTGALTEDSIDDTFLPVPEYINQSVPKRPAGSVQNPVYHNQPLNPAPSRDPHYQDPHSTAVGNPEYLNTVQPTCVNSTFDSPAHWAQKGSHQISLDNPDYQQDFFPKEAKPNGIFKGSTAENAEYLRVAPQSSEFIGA
Method: as §1, §2
(iv) Peptide/Kinase Mixtures for measurement of EGFR (ErbB1) T790M L858R:
The 2×EGFR (ErbB1) T790M L858R/Tyr 04 mixture is prepared in 50 mM HEPES pH 6.5, 0.01% BRIJ-35, 10 mM MgCl2, 1 mM EGTA, 0.02% NaN3. The final 10 μL Kinase Reaction consists of 0.38-4.22 ng EGFR (ErbB1) T790M L858R and 2 μM Tyr 04 in 50 mM HEPES pH 7.0, 0.01% BRIJ-35, 10 mM MgCl2, 1 mM EGTA, 0.01% NaN3. After the 1 hour Kinase Reaction incubation, 5 μL of a 1:64 dilution of Development Reagent B is added.
as §3, §4

[7] = system: H3255 cells; assay: MTT cell growth inhibition assay, H3255; format: cell-based; details: Homo sapiens, NCI-H3255, H3255 cells (L858R mutation), 72 h
Method: as §5, §6, §7

T1 sequence (Q06187 whole entry): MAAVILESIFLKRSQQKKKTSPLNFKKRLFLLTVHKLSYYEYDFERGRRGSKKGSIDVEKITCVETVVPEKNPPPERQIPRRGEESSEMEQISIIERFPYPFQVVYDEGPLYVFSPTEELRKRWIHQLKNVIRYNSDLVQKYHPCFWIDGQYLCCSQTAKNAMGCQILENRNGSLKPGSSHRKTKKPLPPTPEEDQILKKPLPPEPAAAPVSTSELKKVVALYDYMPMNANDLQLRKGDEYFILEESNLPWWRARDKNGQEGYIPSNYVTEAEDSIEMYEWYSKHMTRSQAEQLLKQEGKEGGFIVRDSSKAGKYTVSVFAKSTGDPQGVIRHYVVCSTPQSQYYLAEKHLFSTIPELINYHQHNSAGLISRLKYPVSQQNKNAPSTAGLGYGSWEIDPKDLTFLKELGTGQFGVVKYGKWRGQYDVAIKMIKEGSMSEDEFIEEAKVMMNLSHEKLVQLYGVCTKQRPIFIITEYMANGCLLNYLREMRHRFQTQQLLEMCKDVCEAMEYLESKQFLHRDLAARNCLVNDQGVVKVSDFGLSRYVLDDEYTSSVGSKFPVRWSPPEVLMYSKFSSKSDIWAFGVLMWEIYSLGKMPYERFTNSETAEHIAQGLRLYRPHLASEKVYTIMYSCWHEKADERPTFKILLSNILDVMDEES

SMILES	inhibition at 0.1 µM [1]	IC50 [2]	IC50 [3]	IC50 [4]	inhibition at 0.1 µM [5]	inhibition at 0.1 µM [6]	IC50 [5]	IC50 [6]	IC50 [1]	IC50 [7]	inhibition at 0.0137 µM ([6]; compound at 13.7 nM, 10 μM of ATP)
C=CC(=O)Nc1cc(Nc2ncc3cccc(-c4cccc(F)c4)c3n2)ccc1N1CCC(N(C)C)C1 (stereo not drawn) [Example C024, N-(2-(3-(dimethylamino)pyrrolidin-1-yl)-5-((8-(3-fluorophenyl)quinazolin-2-yl)amino)phenyl)acrylamide]	> 50%	0.1 to 0.5 µM	< 0.1 µM	< 0.1 µM	–	–	–	–	–	–	–
C=CC(=O)Nc1cc(Nc2ncc3cccc(-c4cccc(F)c4)c3n2)c(OC)cc1N1CCC(N(C)C)C1 (stereo not drawn) [Example C023, N-(2-(3-(dimethylamino)pyrrolidin-1-yl)-5-((8-(3-fluorophenyl)quinazolin-2-yl)amino)-4-methoxyphenyl)acrylamide]	> 50%	> 0.5 µM	< 0.1 µM	< 0.1 µM	–	–	–	–	–	–	–
C=CC(=O)Nc1cc(Nc2ncc3cccc(-c4cccc(F)c4)c3n2)c(OC)cc1N(C)CCN(C)C [Example C018, N-(2-((2-(dimethylamino)ethyl)(methyl)amino)-5-((8-(3-fluorophenyl)quinazolin-2-yl)amino)-4-methoxyphenyl)acrylamide]	> 50%	0.1 to 0.5 µM	–	< 0.1 µM	> 50%	> 50%	–	–	–	–	–
C=CC(=O)Nc1cc(Nc2ncc3cccc(Cl)c3n2)ccc1N(C)CCN(C)C [Example C002, N-(5-((8-chloroquinazolin-2-yl)amino)-2-((2-(dimethylamino)ethyl)(methyl)amino)phenyl) acrylamide]	–	> 0.5 µM	0.1 to 0.5 µM	< 0.1 µM	–	–	> 0.1 µM	> 0.1 µM	> 0.1 µM	–	–
C=CC(=O)Nc1cc(Nc2ncc3cccc(-c4cccc(F)c4)c3n2)ccc1N1CC(N(C)C)C1 [Example C025, N-(2-(3-(dimethylamino)azetidin-1-yl)-5-((8-(3-fluorophenyl)quinazolin-2-yl)amino)phenyl)acrylamide]	> 50%	0.1 to 0.5 µM	< 0.1 µM	< 0.1 µM	–	–	–	–	–	–	–
C=CC(=O)Nc1cc(Nc2ncc3cccc(-c4cncc(F)c4)c3n2)ccc1N(C)CCN(C)C [Example C022, N-(2-((2-(dimethylamino)ethyl)(methyl)amino)-5-((8-(5-fluoropyridin-3-yl)quinazolin-2-yl)amino)phenyl)acrylamide]	> 50%	0.1 to 0.5 µM	< 0.1 µM	< 0.1 µM	< 50%	> 50%	–	–	–	–	–
C=CC(=O)Nc1cc(Nc2ncc3cccc(-c4ccccc4)c3n2)ccc1N(C)CCN(C)C [Example C004, N-(2-((2-(dimethylamino)ethyl)(methyl)amino)-5-((8-phenylquinazolin-2-yl)amino)phenyl)acrylamide]	> 50%	< 0.1 µM	< 0.1 µM	< 0.1 µM	> 50%	> 50%	> 0.1 µM	< 0.1 µM	< 0.1 µM	< 0.1 µM	–
C=CC(=O)Nc1cc(Nc2ncc3cccc(-c4cccc(Cl)c4)c3n2)c(OC)cc1N(C)CCN(C)C [Example C017, N-(5-((8-(3-chlorophenyl)quinazolin-2-yl)amino)-2-((2-(dimethylamino)ethyl)(methyl)amino)-4-methoxyphenyl)acrylamide]	> 50%	0.1 to 0.5 µM	–	< 0.1 µM	> 50%	> 50%	–	–	–	–	–
C=CC(=O)Nc1cc(Nc2ncc3cccc(-c4cccc(Cl)c4)c3n2)ccc1N(C)CCN(C)C [Example C005, N-(5-((8-(3-chlorophenyl)quinazolin-2-yl)amino)-2-((2-(dimethylamino)ethyl)(methyl)amino)phenyl) acrylamide]	> 50%	0.1 to 0.5 µM	< 0.1 µM	< 0.1 µM	> 50%	> 50%	> 0.1 µM	< 0.1 µM	–	< 0.1 µM	–
C=CC(=O)Nc1cc(Nc2ncc3cccc(OC)c3n2)ccc1N(C)CCN(C)C [Example C003, N-(2-((2-(dimethylamino)ethyl)(methyl)amino)-5-((8-methoxyquinazolin-2-yl)amino)phenyl)acrylamide]	< 50%	> 0.5 µM	0.1 to 0.5 µM	< 0.1 µM	–	< 50%	–	–	–	–	< 50%
C=CC(=O)Nc1cc(Nc2ncc3cccc(-c4cccc(Cl)c4)c3n2)c(OC)cc1OC1CCN(C)C1 (stereo not drawn) [Example C020, N-(5-((8-(3-chlorophenyl)quinazolin-2-yl)amino)-4-methoxy-2-((1-methylpyrrolidin-3-yl)oxy)phenyl)acrylamide]	> 50%	0.1 to 0.5 µM	–	< 0.1 µM	> 50%	> 50%	–	–	–	–	–
C=CC(=O)Nc1cc(Nc2ncc3cccc(-c4cccc(F)c4)c3n2)c(OC)cc1OC1CCN(C)C1 (stereo not drawn) [Example C019, N-(5-((8-(3-fluorophenyl)quinazolin-2-yl)amino)-4-methoxy-2-((1-methylpyrrolidin-3-yl)oxy)phenyl)acrylamide]	> 50%	0.1 to 0.5 µM	–	< 0.1 µM	> 50%	> 50%	–	–	–	–	–

From US10947201B2, “Certain chemical entities, compositions, and methods” (NEUPHARMA, INC., priority 2015, dated 2021)
